Reference: US12655158B2, “Biomimetic G-quartet compounds” (CENTRE NATIONAL DE LA RECHERCHE SCIENTIFIQUE, priority 2020, dated 2026)

System: doubly labelled quadruplex F21T (F-21-T, FAM-d[GGGTTAGGGTTAGGGTTAGGG]-TAMRA)
Test: FRET-melting assay with F21T quadruplex
Assay type: binding
Details: F21T 0.2 μM, Caco.K buffer, 5 molar equivalents of TASQ; means of 3 experiments
Protocol: The lyophilized DNA strands (purchased from Eurogentec, Seraing, Belgium) were firstly diluted at 500 μM in deionized water (18.2 MΩ·cm resistivity). The DNA batch was prepared in a Caco.K buffer, comprised of 10 mM lithium cacodylate buffer (pH 7.2) plus 10 mM KCl/90 mM LiCl.
The quadruplex structure was prepared by mixing 40 μL of the constitutive strand (500 μM) with 8 μL of a lithium cacodylate buffer solution (100 mM, pH 7.2), plus 8 μL of a KCl/LiCl solution (100 mM/900 mM) and 24 μL of water. The final DNA concentration was theoretically 250 μM. The actual concentration of the DNA was determined through a dilution to 1 μM theoretical concentration through UV spectral analysis at 260 nm (after 5 min at 90° C.) with the following molar extinction coefficient values: 268300 M^−1·cm^−1 (F21 T). The higher-order DNA structure was folded as follows: solutions were heated (90° C., 5 min), cooled on ice (7 h) and then stored at least overnight (4° C.). […] Final data were analyzed with Excel (Microsoft Corp.) and OriginPro® 9.1 (OriginLab Corp.). […]
The apparent affinity of each G4-ligands is quantified via fluorescence resonance energy transfer (FRET)-melting experiments. […]

SMILES	Thermal stabilization ΔT1/2 [°C]
NCCN(CC(=O)NCCNC(=O)CN1CCN(CC(=O)NCCNC(=O)CN(CCN)C(=O)Cn2cnc3c(=O)[nH]c(N)nc32)CCN(CC(=O)NCCNC(=O)CN(CCN)C(=O)Cn2cnc3c(=O)[nH]c(N)nc32)CCN(CC(=O)NCCNC(=O)CN(CCN)C(=O)Cn2cnc3c(=O)[nH]c(N)nc32)CC1)C(=O)Cn1cnc2c(=O)[nH]c(N)nc21 [^PNADOTASQ]	9.1
NCCN(CC(=O)NCCNC(=O)CN1CCN(CC(=O)NCCNC(=O)CN(CCN)C(=O)Cn2cnc3c(=O)[nH]c(N)nc32)CCN(CC(=O)NCCNC(=O)CN(CCN)C(=O)Cn2cnc3c(=O)[nH]c(N)nc32)C(CNC(=O)CCCC[C@H]2SCC3NC(=O)NC32)CN(CC(=O)NCCNC(=O)CN(CCN)C(=O)Cn2cnc3c(=O)[nH]c(N)nc32)CC1)C(=O)Cn1cnc2c(=O)[nH]c(N)nc21 (some centres unmarked) [BioTASQ]	2.2
